Measured values as given in patent US20160271263A1 (Novo Nordisk A/S, priority 2010, published 2016).
Numbered stars: 1 amine (or outer) side, 2 acyl side, 3 side chain; on linkers, the order of the positions; unused ones are H or OH. Square brackets hold non-standard residues; d marks the D form. Side chains are listed from the residue outwards. Peptide text beside a SMILES is read from it. * marks the point of attachment. C18 diacid = O=C(O)CCCCCCCCCCCCCCCCC(=O)*; γGlu = O=C(O)[C@H](CCC(=O)[*:2])N[*:1]; AEEA = NCCOCCOCC(=O)O

Molecular target: glucagon receptor (Homo sapiens, UniProt P47871)
Assay: cell-based

Chain of glucagon receptor (P47871 26-477): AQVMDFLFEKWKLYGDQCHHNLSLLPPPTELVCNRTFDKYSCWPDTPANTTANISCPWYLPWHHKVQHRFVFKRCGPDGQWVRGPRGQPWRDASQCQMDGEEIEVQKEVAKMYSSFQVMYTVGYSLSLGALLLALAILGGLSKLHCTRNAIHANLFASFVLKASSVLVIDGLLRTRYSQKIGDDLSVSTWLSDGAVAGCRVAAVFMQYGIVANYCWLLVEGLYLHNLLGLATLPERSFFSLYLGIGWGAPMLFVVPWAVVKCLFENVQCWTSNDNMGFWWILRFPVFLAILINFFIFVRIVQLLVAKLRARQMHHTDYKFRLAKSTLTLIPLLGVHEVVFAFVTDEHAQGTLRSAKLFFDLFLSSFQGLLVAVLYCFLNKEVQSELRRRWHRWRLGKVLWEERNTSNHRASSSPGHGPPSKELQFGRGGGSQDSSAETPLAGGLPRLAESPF

| SMILES | EC50 |
| --- | --- |
| CC(C)C[C@H](NC(=O)[C@H](Cc1ccc(O)cc1)NC(=O)[C@H](CCCCN)NC(=O)[C@H](CO)NC(=O)[C@H](Cc1ccc(O)cc1)NC(=O)[C@H](CC(=O)O)NC(=O)[C@H](CO)NC(=O)[C@@H](NC(=O)[C@H](Cc1ccccc1)NC(=O)[C@@H](NC(=O)[C@@H](Cc1ccccc1)NC(=O)[C@H](CCC(N)=O)NC(=O)[C@H](CO)NC(=O)[C@@H](N)Cc1c[nH]cn1)[C@@H](C)O)[C@@H](C)O)C(=O)N[C@@H](CC(=O)O)C(=O)N[C@@H](CO)C(=O)N[C@@H](CCCNC(=N)N)C(=O)N[C@@H](CCCNC(=N)N)C(=O)N[C@@H](C)C(=O)N[C@@H](CCC(N)=O)C(=O)N[C@@H](CC(=O)O)C(=O)N[C@@H](Cc1ccccc1)C(=O)N[C@H](C(=O)N[C@@H](CCCCNC(=O)CC[C@H](NC(=O)CC[C@H](NC(=O)COCCOCCNC(=O)COCCOCCNC(=O)CC[C@H](NC(=O)CCCCCCCCCCCCCCCCC(=O)O)C(=O)O)C(=O)O)C(=O)O)C(=O)N[C@@H](Cc1c[nH]c2ccccc12)C(=O)N[C@@H](CC(C)C)C(=O)N[C@@H](CC(C)C)C(=O)N[C@@H](CO)C(=O)N[C@H](C(=O)O)[C@@H](C)O)C(C)C [Example 99, N^ε24-[(4S)-4-carboxy-4-[[(4S)-4-carboxy-4-[[2-[2-[2-[[2-[2-[2-[[(4S)-4-carboxy-4-(17-carboxyheptadecanoylamino)butanoyl]amino]ethoxy]ethoxy]acetyl]amino]ethoxy]ethoxy]acetyl]amino]butanoyl]amino]butanoyl]-[D-Phe4,Lys24,Leu27,Ser28]-Glucagon] (H-HSQ[dF]TFTSDYSKYLDSRRAQDFVK([γGlu-γGlu-AEEA-AEEA-γGlu-C18 diacid])WLLST-OH) | 0.044 nM |
| CC(C)C[C@H](NC(=O)[C@H](Cc1ccc(O)cc1)NC(=O)[C@H](CCCCN)NC(=O)[C@H](CO)NC(=O)[C@H](Cc1ccc(O)cc1)NC(=O)[C@H](CC(=O)O)NC(=O)[C@H](CO)NC(=O)[C@@H](NC(=O)[C@H](Cc1ccccc1)NC(=O)[C@@H](NC(=O)CNC(=O)[C@H](CCC(N)=O)NC(=O)[C@H](CO)NC(=O)[C@@H](N)Cc1c[nH]cn1)[C@@H](C)O)[C@@H](C)O)C(=O)N[C@@H](CC(=O)O)C(=O)N[C@@H](CCCCNC(=O)CC[C@H](NC(=O)CC[C@H](NC(=O)COCCOCCNC(=O)COCCOCCNC(=O)CC[C@H](NC(=O)CCCCCCCCCCCCCCCCC(=O)O)C(=O)O)C(=O)O)C(=O)O)C(=O)N[C@@H](CCCNC(=N)N)C(=O)N[C@@H](CCCNC(=N)N)C(=O)N[C@@H](C)C(=O)N[C@@H](CCC(N)=O)C(=O)N[C@@H](CCC(=O)O)C(=O)N[C@@H](Cc1ccccc1)C(=O)N[C@H](C(=O)N[C@@H](CCC(N)=O)C(=O)N[C@@H](CCCNC(=N)N)C(=O)N[C@@H](CC(C)C)C(=O)N[C@@H](CC(C)C)C(=O)N[C@@H](CC(N)=O)C(=O)N[C@H](C(=O)O)[C@@H](C)O)C(C)C [Example 100, N^ε16-[(4S)-4-carboxy-4-[[(4S)-4-carboxy-4-[[2-[2-[2-[[2-[2-[2-[[(4S)-4-carboxy-4-(17-carboxyheptadecanoylamino)butanoyl]amino]ethoxy]ethoxy]acetyl]amino]ethoxy]ethoxy]acetyl]amino]butanoyl]amino]butanoyl]-[Lys^16,Glu^21,Arg^25,Leu^27]-Glucagon] (H-HSQGTFTSDYSKYLDK([γGlu-γGlu-AEEA-AEEA-γGlu-C18 diacid])RRAQEFVQRLLNT-OH) | 0.45 nM |
